Experimental data from ChEMBL document CHEMBL6096738, “Optimization of Single Relaxin B-Chain Peptide Leads to the Identification of R2R01, a Potent, Long-Acting RXFP1 Agonist for Cardiovascular and Renal Diseases” (J Med Chem, 2025).
Starred links: 1 amine or outer side, 2 acyl side, 3 side chain; linkers in the order of their positions; H or OH if unused. Non-standard residues stand in square brackets, D forms with d. Residues, ends and D or L forms follow the SMILES beside them. Groups on a side chain read outwards from the residue. ξ: configuration not given here. *: point of attachment. X2 = CCCCCCCCCCCCCCCC(=O)N[C@@H](CCC(=O)N[C@@H](CCC(=O)N[C@@H](CCC(=O)NCCCOCCOCCOCCCNC(=O)CCC(=O)NCCCOCCOCCOCCCNC(=O)CCC(=O)NCCCOCCOCCOCCCN*)C(=O)O)C(=O)O)C(=O)O; PEG12 = NCCOCCOCCOCCOCCOCCOCCOCCOCCOCCOCCOCCOCCC(=O)O; γGlu = O=C(O)[C@H](CCC(=O)[*:2])N[*:1]; ξγGlu = O=C(O)C(CCC(=O)[*:2])N[*:1]; Stearoyl = CCCCCCCCCCCCCCCCCC(=O)*; Palmitoyl = CCCCCCCCCCCCCCCC(=O)*; Suc = O=C(CCC(=O)[*:2])[*:1]; αMeK = C[C@](N)(CCCCN)C(=O)O; Nle = CCCC[C@H](N)C(=O)O; AEEA = NCCOCCOCC(=O)O; Aib = CC(C)(N)C(=O)O

Tests used:
[1] = target: T1, Relaxin receptor 1 (Homo sapiens) (UniProt Q9HBX9); assay: Agonist activity at human RXFP1 expressed in 2%HSA treated human OVCAR-5 cells assessed as intracellular cAMP accumulation by measuring maximal efficacy incubated for 30 mins with 2% HSA pretreated compound by HTRF assay relative to control; type: functional, cell-based; settings: filed as agonist
T1 sequence (whole entry): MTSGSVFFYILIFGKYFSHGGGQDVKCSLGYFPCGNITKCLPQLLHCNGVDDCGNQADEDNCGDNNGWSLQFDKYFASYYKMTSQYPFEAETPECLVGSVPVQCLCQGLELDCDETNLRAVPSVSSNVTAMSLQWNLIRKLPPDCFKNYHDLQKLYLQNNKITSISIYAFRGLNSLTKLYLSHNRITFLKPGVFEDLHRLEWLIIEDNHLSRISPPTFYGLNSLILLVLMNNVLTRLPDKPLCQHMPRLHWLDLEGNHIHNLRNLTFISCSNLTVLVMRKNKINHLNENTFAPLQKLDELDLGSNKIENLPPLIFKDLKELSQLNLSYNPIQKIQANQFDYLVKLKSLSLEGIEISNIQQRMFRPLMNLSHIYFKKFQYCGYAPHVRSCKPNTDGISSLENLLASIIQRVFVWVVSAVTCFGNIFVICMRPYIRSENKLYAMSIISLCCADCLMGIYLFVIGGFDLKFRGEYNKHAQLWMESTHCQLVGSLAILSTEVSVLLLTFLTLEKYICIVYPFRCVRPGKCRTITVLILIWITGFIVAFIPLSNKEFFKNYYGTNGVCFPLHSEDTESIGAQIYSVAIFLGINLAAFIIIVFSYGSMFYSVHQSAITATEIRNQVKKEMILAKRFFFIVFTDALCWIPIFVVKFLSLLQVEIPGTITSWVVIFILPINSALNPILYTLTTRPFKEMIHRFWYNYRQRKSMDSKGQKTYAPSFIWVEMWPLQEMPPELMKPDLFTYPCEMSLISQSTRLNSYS

Relaxin receptor 1 [2] = target: T2, Relaxin receptor 1 (Homo sapiens, UniProt Q9HBX9); assay: Agonist activity at human RXFP1 expressed in human OVCAR-5 cells assessed as intracellular cAMP accumulation incubated for 30 mins by HTRF assay; type: functional, cell-based
T2 sequence (Q9HBX9 whole entry): T1 sequence (whole entry)

[3] = target: T1, Relaxin receptor 1 (Homo sapiens); assay: Agonist activity at human RXFP1 expressed in human OVCAR-5 cells assessed as intracellular cAMP accumulation by measuring maximal efficacy incubated for 30 mins by HTRF assay relative to control; type: functional, cell-based; settings: filed as agonist
Relaxin receptor 1 [4] = target: T2, Relaxin receptor 1; assay: Agonist activity at human RXFP1 expressed in 2%HSA treated human OVCAR-5 cells assessed as intracellular cAMP accumulation incubated for 30 mins with 2% HSA pretreated compound by HTRF assay; type: functional, cell-based
[5] = Half-life in male Sprague-Dawley rat at 1 mg/kg, iv measured after 198 hrs by LC-HRMS analysis; type: ADME, organism-based; settings: in vivo

Structure (SMILES) | Emax [1] [%] | EC50 (Relaxin receptor 1 [2]) [nM] | Emax [3] [%] | EC50 (Relaxin receptor 1 [4]) [nM] | half-life [5] [h]
CCCCCCCCCCCCCCCC(=O)N[C@@H](CCC(=O)N[C@@H](CCC(=O)N[C@@H](CCC(=O)NCCCOCCOCCOCCCNC(=O)CCC(=O)NCCCOCCOCCOCCCNC(=O)CCC(=O)NCCCOCCOCCOCCCNC(=O)CCC(=O)NCCCC[C@H](NC(=O)[C@@H](NC(=O)[C@H](CCCCNC(C)=O)NC(=O)[C@H](C)NC(=O)[C@H](CCCNC(=N)N)NC(=O)[C@@H](NC(=O)[C@H](CCCCN)NC(=O)[C@H](CCC(=O)O)NC(=O)[C@H](CCCNC(=N)N)NC(=O)CNC(=O)[C@H](CCC(=O)O)NC(=O)[C@H](CC(C)C)NC(C)=O)C(C)C)[C@@H](C)CC)C(=O)NC(C)(C)C(=O)N[C@@H](CCC(=O)O)C(=O)NCC(=O)N[C@@H](CCCC)C(=O)N[C@@H](CO)C(=O)N[C@H](C(=O)N[C@@H](Cc1ccccc1)C(=O)N[C@@H](CO)C(=O)N[C@@](C)(CCCCN)C(=O)N[C@@H](CCCNC(=N)N)C(=O)N[C@@H](C)C(=O)N[C@@H](CCCCNC(C)=O)C(N)=O)[C@@H](C)O)C(=O)O)C(=O)O)C(=O)O (Ac-LEGREKVRAK(Ac)IK([Suc-X2])[Aib]EG[Nle]STFS[αMeK]RAK(Ac)-NH2) | 89 | 0.43 | 91 | 31.7 | 
CCCCCCCCCCCCCCCC(=O)N[C@@H](CCC(=O)N[C@@H](CCC(=O)N[C@@H](CCC(=O)NCCOCCOCC(=O)NCCOCCOCC(=O)NCCOCCOCC(=O)NCCCC[C@H](NC(=O)CNC(=O)[C@H](CCC(=O)O)NC(=O)C(C)(C)NC(=O)C(C)(C)NC(=O)[C@@H](NC(=O)[C@H](CCCCNC(C)=O)NC(=O)[C@H](C)NC(=O)[C@H](CCCNC(=N)N)NC(=O)[C@@H](NC(=O)[C@H](CCCCN)NC(=O)[C@H](CCC(=O)O)NC(=O)[C@H](CCCNC(=N)N)NC(=O)CNC(=O)[C@H](CCC(=O)O)NC(=O)[C@H](CC(C)C)NC(C)=O)C(C)C)[C@@H](C)CC)C(=O)N[C@@H](CO)C(=O)N[C@H](C(=O)N[C@@H](Cc1c[nH]c2ccccc12)C(=O)N[C@@H](CO)C(=O)NC(C)(C)C(=O)N[C@@H](CCCNC(=N)N)C(=O)N[C@@H](CCCCN)C(=O)N[C@@H](CCCCNC(C)=O)C(N)=O)[C@@H](C)O)C(=O)O)C(=O)O)C(=O)O (Ac-LEGREKVRAK(Ac)I[Aib][Aib]EGK([AEEA-AEEA-AEEA-γGlu-γGlu-γGlu-Palmitoyl])STWS[Aib]RKK(Ac)-NH2) |  |  | 88 | > 2000 | 
CCCCCCCCCCCCCCCCCC(=O)N[C@@H](CCC(=O)N[C@@H](CCC(=O)N[C@@H](CCC(=O)NCCOCCOCC(=O)NCCOCCOCC(=O)NCCOCCOCC(=O)NCCCC[C@H](NC(=O)[C@H](CCCCNC(C)=O)NC(=O)[C@H](CCCCN)NC(=O)[C@H](CCCNC(=N)N)NC(=O)C(C)(C)NC(=O)[C@H](CO)NC(=O)[C@H](Cc1c[nH]c2ccccc12)NC(=O)[C@@H](NC(=O)[C@H](CO)NC(=O)[C@H](CCC(N)=O)NC(=O)CNC(=O)[C@H](CCC(=O)O)NC(=O)C(C)(C)NC(=O)C(C)(C)NC(=O)[C@@H](NC(=O)[C@H](CCCCNC(C)=O)NC(=O)[C@H](C)NC(=O)[C@H](CCCNC(=N)N)NC(=O)[C@@H](NC(=O)[C@H](CCCCN)NC(=O)[C@H](CCC(=O)O)NC(=O)[C@H](CCCNC(=N)N)NC(=O)CNC(=O)[C@H](CCC(=O)O)NC(=O)[C@H](CC(C)C)NC(C)=O)C(C)C)[C@@H](C)CC)[C@@H](C)O)C(N)=O)C(=O)O)C(=O)O)C(=O)O (Ac-LEGREKVRAK(Ac)I[Aib][Aib]EGQSTWS[Aib]RKK(Ac)K([AEEA-AEEA-AEEA-γGlu-γGlu-γGlu-Stearoyl])-NH2) | 82 |  | 88 | 47.2 | 
CCCCCCCCCCCCCCCC(=O)N[C@@H](CCC(=O)N[C@@H](CCC(=O)N[C@@H](CCC(=O)NCCCC[C@H](NC(=O)COCCOCCNC(=O)COCCOCCNC(=O)COCCOCCNC(=O)[C@H](CCCCNC(C)=O)NC(=O)[C@H](CCCCN)NC(=O)[C@H](CCCNC(=N)N)NC(=O)C(C)(C)NC(=O)[C@H](CO)NC(=O)[C@H](Cc1c[nH]c2ccccc12)NC(=O)[C@@H](NC(=O)[C@H](CO)NC(=O)[C@H](CCCC)NC(=O)CNC(=O)[C@H](CCC(=O)O)NC(=O)C(C)(C)NC(=O)C(C)(C)NC(=O)[C@@H](NC(=O)[C@H](CCCCNC(C)=O)NC(=O)[C@H](C)NC(=O)[C@H](CCCNC(=N)N)NC(=O)[C@@H](NC(=O)[C@H](CCCCN)NC(=O)[C@H](CCC(=O)O)NC(=O)[C@H](CCCNC(=N)N)NC(=O)CNC(=O)[C@H](CCC(=O)O)NC(=O)[C@H](CC(C)C)NC(C)=O)C(C)C)[C@@H](C)CC)[C@@H](C)O)C(N)=O)C(=O)O)C(=O)O)C(=O)O (Ac-LEGREKVRAK(Ac)I[Aib][Aib]EG[Nle]STWS[Aib]RKK(Ac)[AEEA][AEEA][AEEA]K([γGlu-γGlu-γGlu-Palmitoyl])-NH2) | 80 | 1.6 | 91 | 77 | 
CCCCCCCCCCCCCCCC(=O)N[C@@H](CCC(=O)N[C@@H](CCC(=O)NC(CCC(=O)NCCOCCOCC(=O)NCCOCCOCC(=O)NCCOCCOCC(=O)NCCCC[C@H](NC(=O)[C@H](C)NC(=O)[C@H](CCCNC(=N)N)NC(=O)[C@@H](NC(=O)[C@H](CCCCN)NC(=O)[C@H](CCC(=O)O)NC(=O)[C@H](CCCNC(=N)N)NC(=O)CNC(=O)[C@H](CCC(=O)O)NC(=O)[C@H](CC(C)C)NC(C)=O)C(C)C)C(=O)N[C@H](C(=O)NC(C)(C)C(=O)NC(C)(C)C(=O)N[C@@H](CCC(=O)O)C(=O)NCC(=O)N[C@@H](CCCC)C(=O)N[C@@H](CO)C(=O)N[C@H](C(=O)N[C@@H](Cc1c[nH]c2ccccc12)C(=O)N[C@@H](CO)C(=O)NC(C)(C)C(=O)N[C@@H](CCCNC(=N)N)C(=O)N[C@@H](CCCCN)C(=O)N[C@@H](CCCCNC(C)=O)C(N)=O)[C@@H](C)O)[C@@H](C)CC)C(=O)O)C(=O)O)C(=O)O (stereo not given in full) (Ac-LEGREKVRAK([AEEA-AEEA-AEEA-ξγGlu-γGlu-γGlu-Palmitoyl])I[Aib][Aib]EG[Nle]STWS[Aib]RKK(Ac)-NH2) |  | 14.5 | 78 | > 2000 | 
CCCCCCCCCCCCCCCC(=O)N[C@@H](CCC(=O)N[C@@H](CCC(=O)N[C@@H](CCC(=O)NCCCOCCOCCOCCCNC(=O)CCC(=O)NCCCOCCOCCOCCCNC(=O)CCC(=O)NCCCOCCOCCOCCCNC(=O)CCC(=O)NCCCC[C@H](NC(=O)[C@H](C)NC(=O)[C@H](CCCNC(=N)N)NC(=O)[C@@H](NC(=O)[C@H](CCCCN)NC(=O)[C@H](CCC(=O)O)NC(=O)[C@H](CCCNC(=N)N)NC(=O)CNC(=O)[C@H](CCC(=O)O)NC(=O)[C@H](CC(C)C)NC(C)=O)C(C)C)C(=O)N[C@H](C(=O)NC(C)(C)C(=O)NC(C)(C)C(=O)N[C@@H](CCC(=O)O)C(=O)NCC(=O)N[C@@H](CCC(N)=O)C(=O)N[C@@H](CO)C(=O)N[C@H](C(=O)N[C@@H](Cc1ccccc1)C(=O)N[C@@H](CO)C(=O)N[C@@](C)(CCCCN)C(=O)N[C@@H](CCCNC(=N)N)C(=O)N[C@@H](C)C(=O)N[C@@H](CCCCNC(C)=O)C(N)=O)[C@@H](C)O)[C@@H](C)CC)C(=O)O)C(=O)O)C(=O)O (Ac-LEGREKVRAK([Suc-X2])I[Aib][Aib]EGQSTFS[αMeK]RAK(Ac)-NH2) | 94 | 0.06 | 95 | 19.4 | 11.5
CCCCCCCCCCCCCCCC(=O)N[C@@H](CCC(=O)N[C@@H](CCC(=O)N[C@@H](CCC(=O)NCCCC[C@H](NC(=O)CCOCCOCCOCCOCCOCCOCCOCCOCCOCCOCCOCCOCCNC(=O)[C@H](CCCCNC(C)=O)NC(=O)[C@H](CCCCN)NC(=O)[C@H](CCCNC(=N)N)NC(=O)C(C)(C)NC(=O)[C@H](CO)NC(=O)[C@H](Cc1c[nH]c2ccccc12)NC(=O)[C@@H](NC(=O)[C@H](CO)NC(=O)[C@H](CCCC)NC(=O)CNC(=O)[C@H](CCC(=O)O)NC(=O)C(C)(C)NC(=O)C(C)(C)NC(=O)[C@@H](NC(=O)[C@H](CCCCNC(C)=O)NC(=O)C(C)(C)NC(=O)[C@H](CCCNC(=N)N)NC(=O)[C@@H](NC(=O)[C@H](CCCCN)NC(=O)[C@H](CCC(=O)O)NC(=O)[C@H](CCCNC(=N)N)NC(=O)CNC(=O)[C@H](CCC(=O)O)NC(=O)[C@H](CC(C)C)NC(C)=O)C(C)C)[C@@H](C)CC)[C@@H](C)O)C(N)=O)C(=O)O)C(=O)O)C(=O)O (Ac-LEGREKVR[Aib]K(Ac)I[Aib][Aib]EG[Nle]STWS[Aib]RKK(Ac)[PEG12]K([γGlu-γGlu-γGlu-Palmitoyl])-NH2) | 82 |  | 86 | 46 | 6.9
